# Data as given in patent publication US10336775B2 (Asceneuron SA, priority 2014, dated 2019).
# pIC50: −log10 of the molar value. Read-outs that look alike come from different tables or passages of the source.
# Molecular target: His-Tagged hOGA (human O-GlcNAcase) (Homo sapiens (Human), UniProt O60502)
# Assay: Human O-GlcNAcase enzyme inhibition assay (Example B01)
# Assay type: biochemical
# Conditions: for IC50: OGA enzyme inhibition assay, activity range classes defined in μM; for OGA inhibitor activity (in words): measured according to Example B01
# His-Tagged hOGA (human O-GlcNAcase), sequence (O60502 whole entry): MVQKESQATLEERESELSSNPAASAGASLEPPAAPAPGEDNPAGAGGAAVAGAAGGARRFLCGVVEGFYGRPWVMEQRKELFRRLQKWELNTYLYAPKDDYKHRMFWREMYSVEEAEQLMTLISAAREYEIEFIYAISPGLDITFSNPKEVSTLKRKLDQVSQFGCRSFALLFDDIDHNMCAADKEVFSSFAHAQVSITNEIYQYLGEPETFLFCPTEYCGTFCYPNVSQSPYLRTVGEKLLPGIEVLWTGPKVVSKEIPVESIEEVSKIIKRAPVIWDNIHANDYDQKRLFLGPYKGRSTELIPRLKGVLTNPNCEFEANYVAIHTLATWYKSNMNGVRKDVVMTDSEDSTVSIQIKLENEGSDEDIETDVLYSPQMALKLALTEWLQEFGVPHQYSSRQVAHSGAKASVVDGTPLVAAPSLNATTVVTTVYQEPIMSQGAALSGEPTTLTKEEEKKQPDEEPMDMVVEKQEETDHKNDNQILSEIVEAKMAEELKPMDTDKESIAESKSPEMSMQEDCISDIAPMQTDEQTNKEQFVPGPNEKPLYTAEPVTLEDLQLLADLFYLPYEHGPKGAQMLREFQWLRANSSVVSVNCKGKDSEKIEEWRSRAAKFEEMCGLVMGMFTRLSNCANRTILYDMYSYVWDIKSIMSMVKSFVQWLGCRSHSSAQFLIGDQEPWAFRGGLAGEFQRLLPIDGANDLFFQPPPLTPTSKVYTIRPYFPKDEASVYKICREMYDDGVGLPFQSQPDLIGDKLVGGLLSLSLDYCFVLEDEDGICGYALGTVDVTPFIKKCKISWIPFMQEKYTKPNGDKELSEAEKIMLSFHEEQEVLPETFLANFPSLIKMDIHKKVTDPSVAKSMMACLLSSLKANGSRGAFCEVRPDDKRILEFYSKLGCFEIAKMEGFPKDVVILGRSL
Molecule,IC50 (read-out: OGA IC50),OGA inhibitor activity (in words),pIC50 (read-out: OGA IC50)
"C[C@@H](c1ccc2c(c1)OCO2)N1CCN(c2nc3ccccc3[nH]2)CC1 [Example 138, (S)-2-(4-(1-(benzo[d][1,3]dioxol-5-yl)ethyl)piperazin-1-yl)-1H-benzo[d]imidazole]",1 to 10 µM,–,–
"C[C@@H](c1ccc2c(c1)OCO2)N1CCN(c2nc3cnccc3s2)CC1 [Example 139, (S)-2-(4-(1-(benzo[d][1,3]dioxol-5-yl)ethyl)piperazin-1-yl)thiazolo[4,5-c]pyridine]",0.05 to 0.2 µM,–,–
"CCNc1nnc(N2CCN([C@@H](C)c3ccc4c(c3)OCO4)CC2)s1 [Example 141, (S)-5-(4-(1-(benzo[d][1,3]dioxol-5-yl)ethyl)piperazin-1-yl)-N-ethyl-1,3,4-thiadiazol-2-amine]",0.05 to 0.2 µM,–,–
"CCCNc1nnc(N2CCN([C@@H](C)c3ccc4c(c3)OCO4)CC2)s1 [Example 142, (S)-5-(4-(1-(benzo[d][1,3]dioxol-5-yl)ethyl)piperazin-1-yl)-N-propyl-1,3,4-thiadiazol-2-amine]",0.05 to 0.2 µM,–,–
"C[C@@H](c1ccc2c(c1)OCO2)N1CCN(c2ccc(C(F)(F)F)cn2)CC1 [Example 166, (S)-1-(1-(benzo[d][1,3]dioxol-5-yl)ethyl)-4-(5-(trifluoromethyl)pyridin-2-yl)piperazine]",0.05 to 0.2 µM,–,–
"C[C@@H](c1ccc2c(c1)OCO2)N1CCN(c2nc3c(s2)CNCC3)CC1 [Example 182, (S)-2-(4-(1-(benzo[d][1,3]dioxol-5-yl)ethyl)piperazin-1-yl)-4,5,6,7-tetrahydrothiazolo[5,4-c]pyridine]",< 0.05 µM,very potent OGA inhibitors,–
"CCOC(=O)c1ccc(N2CCN([C@@H](C)c3ccc4c(c3)OCO4)CC2)nc1 [Example 183, Ethyl (S)-6-(4-(1-(benzo[d][1,3]dioxol-5-yl)ethyl)piperazin-1-yl)nicotinate]",0.05 to 0.2 µM,–,–
"CNC(=O)c1ccc(N2CCN([C@@H](C)c3ccc4c(c3)OCO4)CC2)nc1 [Example 186, (S)-6-(4-(1-(benzo[d][1,3]dioxol-5-yl)ethyl)piperazin-1-yl)-N-methylnicotinamide]",< 0.05 µM,–,–
"C[C@@H](c1ccc2c(c1)OCO2)N1CCN(c2ccc(C(C)(C)O)cn2)CC1 [Example 190, (S)-2-(6-(4-(1-(benzo[d][1,3]dioxol-5-yl)ethyl)piperazin-1-yl)pyridin-3-yl)propan-2-ol]",< 0.05 µM,–,–
"C[C@@H](c1ccc2c(c1)OCO2)N1CCN(c2ccc(Br)cn2)CC1 [Example 191, (S)-1-(1-(benzo[d][1,3]dioxol-5-yl)ethyl)-4-(5-bromopyridin-2-yl)piperazine]",0.05 to 0.2 µM,–,–
"CSc1ccc(N2CCN([C@@H](C)c3ccc4c(c3)OCO4)CC2)nc1 [Example 192, (S)-1-(1-(benzo[d][1,3]dioxol-5-yl)ethyl)-4-(5-(methylthio)pyridin-2-yl)piperazine]",< 0.05 µM,–,–
"C[C@@H](c1ccc2c(c1)OCO2)N1CCN(c2nc3c(s2)CN(S(C)(=O)=O)CC3)CC1 [Example 193, (S)-2-(4-(1-(benzo[d][1,3]dioxol-5-yl)ethyl)piperazin-1-yl)-5-(methylsulfonyl)-4,5,6,7-tetrahydrothiazolo[5,4-c]pyridine]",< 0.05 µM,–,–
"COc1cnc(N2CCN([C@@H](C)c3ccc4c(c3)OCO4)CC2)nc1 [Example 195, (S)-2-(4-(1-(benzo[d][1,3]dioxol-5-yl)ethyl)piperazin-1-yl)-5-methoxypyrimidine]",< 0.05 µM,–,–
"c1cnc(N2CCN(Cc3ccc4c(c3)OCO4)CC2)nc1 [U.S. Pat. No. 3,299,067 (Example 1), reference compound]",–,–,6.00
"CC(c1ccc(Cl)cc1)N1CCN(c2ccc3ccccc3n2)CC1 (stereo not drawn) [compound 5 of WO 99/21850, reference compound]",–,not active as OGA inhibitors,–
"Cc1cc2ccc(C(C)N3CCN(c4ncccc4C(F)(F)F)CC3)cc2[nH]c1=O (stereo not drawn) [compound of example 56 of WO 99/21850, reference compound]",–,not useful as OGA inhibitors,–
"COc1ccc(C(C)N2CCN(c3ccc(Br)c(OC)n3)CC2)cc1OC (stereo not drawn) [compound of example 72 of WO 2005/110982, reference compound]",–,not active as OGA inhibitors,–
"(2-(4-(1-(benzo[d][1,3]dioxol-5-yl)ethyl)piperazin-1-yl)thiazol-4-yl)methanamine [Example 84]",0.05 to 0.2 µM,–,–
"N-(2-(4-(1-(3,4-Dichlorophenyl)ethyl)piperazin-1-yl)thiazol-5-yl)acetamide [Example 87]",1 to 10 µM,–,–
"N-((2-(4-(1-(benzo[d][1,3]dioxol-5-yl)ethyl)piperazin-1-yl)thiazol-4-yl)methyl)acetamide [Example 85]",< 0.05 µM,–,–

# The remaining lines, values ahead:
IC50 (read-out: OGA IC50),OGA inhibitor activity (in words),pIC50 (read-out: OGA IC50),Molecule
< 0.05 µM,very potent OGA inhibitors,–,"C[C@@H](c1ccc2c(c1)OCO2)N1CCN(c2ncc(C(=O)N(C)C)cn2)CC1 [Example 137, (S)-2-(4-(1-(benzo[d][1,3]dioxol-5-yl)ethyl)piperazin-1-yl)-N,N-dimethylpyrimidine-5-carboxamide]"
< 0.05 µM,–,–,"CC(=O)c1cnc(N2CCN([C@@H](C)c3ccc4c(c3)OCO4)CC2)nc1 [Example 167, (S)-1-(2-(4-(1-(benzo[d][1,3]dioxol-5-yl)ethyl)piperazin-1-yl)pyrimidin-5-yl)ethan-1-one]"
< 0.05 µM,very potent OGA inhibitors,–,"CC(O)c1cnc(N2CCN([C@@H](C)c3ccc4c(c3)OCO4)CC2)nc1 (stereo partly drawn) [Example 168, 1-(2-(4-((S)-1-(benzo[d][1,3]dioxol-5-yl)ethyl)piperazin-1-yl)pyrimidin-5-yl)ethan-1-ol]"
< 0.05 µM,–,–,C[C@@H](c1ccc2c(c1)OCO2)N1CCN(c2nnc(NC(=O)CCO)s2)CC1 [Example 171]
< 0.05 µM,very potent OGA inhibitors,–,"C[C@@H](c1ccc2c(c1)OCO2)N1CCN(c2ncc(F)cn2)CC1 [Example 173, (S)-2-(4-(1-(benzo[d][1,3]dioxol-5-yl)ethyl)piperazin-1-yl)-5-fluoropyrimidine]"
< 0.05 µM,–,–,"C[C@@H](c1ccc2c(c1)OCO2)N1CCN(c2ncc(Br)cn2)CC1 [Example 175, (S)-2-(4-(1-(benzo[d][1,3]dioxol-5-yl)ethyl)piperazin-1-yl)-5-bromopyrimidine]"
< 0.05 µM,very potent OGA inhibitors,–,"C[C@@H](c1ccc2c(c1)OCO2)N1CCN(c2ncc(C(C)(C)O)cn2)CC1 [Example 176, (S)-2-(2-(4-(1-(benzo[d][1,3]dioxol-5-yl)ethyl)piperazin-1-yl)pyrimidin-5-yl)propan-2-ol]"
< 0.05 µM,–,–,"C[C@@H](c1ccc2c(c1)OCO2)N1CCN(c2ncc(NC(=O)CCO)cn2)CC1 [Example 177, (S)-N-(2-(4-(1-(benzo[d][1,3]dioxol-5-yl)ethyl)piperazin-1-yl)pyrimidin-5-yl)-3-hydroxypropanamide]"
< 0.05 µM,very potent OGA inhibitors,–,"C[C@@H](c1ccc2c(c1)OCO2)N1CCN(c2ncc(C3(O)CCCCC3)cn2)CC1 [Example 180, (S)-1-(2-(4-(1-(benzo[d][1,3]dioxol-5-yl)ethyl)piperazin-1-yl)pyrimidin-5-yl)cyclohexan-1-ol]"
< 0.05 µM,very potent OGA inhibitors,–,"C[C@@H](c1ccc2c(c1)OCO2)N1CCN(c2ncc(C3(O)CCCC3)cn2)CC1 [Example 181, (S)-1-(2-(4-(1-(benzo[d][1,3]dioxol-5-yl)ethyl)piperazin-1-yl)pyrimidin-5-yl)cyclopentan-1-ol]"
< 0.05 µM,–,–,"CC(=O)N1CCc2nc(N3CCN([C@@H](C)c4ccc5c(c4)OCO5)CC3)sc2C1 [Example 184, (S)-1-(2-(4-(1-(benzo[d][1,3]dioxol-5-yl)ethyl)piperazin-1-yl)-6,7-dihydrothiazolo[5,4-c]pyridin-5(4H)-yl)ethan-1-one]"
< 0.05 µM,–,–,"C[C@@H](c1ccc2c(c1)OCO2)N1CCN(c2ccc(CO)cn2)CC1 [Example 185, (S)-(6-(4-(1-(benzo[d][1,3]dioxol-5-yl)ethyl)piperazin-1-yl)pyridin-3-yl)methanol]"
< 0.05 µM,–,–,"C[C@@H](c1ccc2c(c1)OCO2)N1CCN(c2ccc(C(=O)N(C)C)cn2)CC1 [Example 187, (S)-6-(4-(1-(benzo[d][1,3]dioxol-5-yl)ethyl)piperazin-1-yl)-N,N-dimethylnicotinamide]"
< 0.05 µM,–,–,"C[C@@H](c1ccc2c(c1)OCO2)N1CCN(c2ncc(C3(O)CCOCC3)cn2)CC1 [Example 188, (S)-4-(2-(4-(1-(benzo[d][1,3]dioxol-5-yl)ethyl)piperazin-1-yl)pyrimidin-5-yl)tetrahydro-2H-pyran-4-ol]"
< 0.05 µM,–,–,"C[C@@H](c1ccc2c(c1)OCO2)N1CCN(c2ncc(C3(O)CCOC3)cn2)CC1 (stereo partly drawn) [Example 189, 3-(2-(4-((S)-1-(benzo[d][1,3]dioxol-5-yl)ethyl)piperazin-1-yl)pyrimidin-5-yl)tetrahydrofuran-3-ol]"
